In paper PMC10648877, “Novel Substituted Azoloazines with Anticoagulant Activity” (International Journal of Molecular Sciences, 2023):
Values joined by “and” are separate entries in the source; they are usually repeats but may differ in a detail not shown here. Equal entries are not always repeated.

Columns and labels:
[1] = system: LPS-treated PPP; test: Prothrombin time, rabbit blood treated with LPS in vitro (hypercytokinemia); type: biochemical; settings: 100 μM
Method: (§1) Hypercytokinemia conditions were modeled by incubation of whole blood with S. typhimurium LPS (Sigma Aldrich, St. Louis, MO, USA) at a final concentration of 20 ng/mL and subsequent preparation of PPP.

[2] = system: coagulograms of rats; test: APTT after single intragastric administration, rats without hypercytokinemia; type: in vivo, rat; settings: dabigatran etexilate 12 mg/kg; for prolongation of APTT compared to the control: intact rats, 2 h after intragastric administration, 5d 5.5 mg/kg; for APTT: rats without hypercytokinemia, single intragastric dose, 2 h, 5d 5.5 mg/kg (equimolar)
Method: (§2) Distilled water was used as a solvent. In all experiments, control animals were injected with an equivalent volume of a vehicle. The reference drug dabigatran etexilate was administered to rats 2 h before the study at a 12 mg/kg dose (equivalent to the human dose, taking into account the interspecies conversion factor). Compound 5d was administered to rats 2 h before the study in a 5.5 mg/kg dose, equimolar to the dose of dabigatran etexilate.
(§3) To stabilize the blood, a 3.8% aqueous solution of sodium citrate (pH 6.0) was used in a ratio of 9:1. Coagulogram parameters of platelet-poor plasma were measured with a SOLAR coagulometer according to the methods described above.

[3] = system: platelet-poor plasma (PPP); test: Thrombin time (TT), rabbit blood coagulogram in vitro; type: biochemical; settings: for Δ% of Thrombin Time Prolongation Relative to Control / EC50: without LPS; for TT: M ± m, n = 6; for EC50: concentration that prolongs clot formation time by 50%, read-out: EC50, μM (thrombin time prolongation)
[4] = system: platelet-poor plasma (PPP); test: Activated partial thromboplastin time (APTT), rabbit blood coagulogram in vitro; type: biochemical; settings: 100 μM; for APTT: M ± m, n = 6;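 on all read-outs here: clotting time read chronometrically on a hemocoagulometer with commercial reagent kits, one of several coagulogram parameters alongside thrombin and prothrombin time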
Method: Test compounds and the reference drug were evaluated at a concentration of 100 μM. Effect on rabbit blood coagulograms in vitro was determined chronometrically with a SOLAR hemocoagulometer (Minsk, Belarus) using commercial kits (Technology-Standard, Barnaul, Russia) as per the manufacturer’s instructions. The following parameters were determined: activated partial thromboplastin time, thrombin time, and prothrombin time.

[5] = system: platelet-poor plasma (PPP); test: Prothrombin time (PT), rabbit blood coagulogram in vitro; settings: 100 μM; for PT: M ± m, n = 6;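 on all read-outs here: clotting time read chronometrically on a hemocoagulometer using commercial reagent kits, with dabigatran etexilate at the same concentration as reference anticoagulant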
Method: The study was performed on platelet-poor plasma (PPP) stabilized with a 3.8% sodium citrate solution in a ratio of 9:1 according to the method described in [34]. Dabigatran etexilate (Boehringer Ingelheim Pharma GmbH and Co., Ingelheim am Rhein, Germany) was used as the reference drug. Test compounds and the reference drug were evaluated at a concentration of 100 μM. Effect on rabbit blood coagulograms in vitro was determined chronometrically with a SOLAR hemocoagulometer (Minsk, Belarus) using commercial kits (Technology-Standard, Barnaul, Russia) as per the manufacturer’s instructions. The following parameters were determined: activated partial thromboplastin time, thrombin time, and prothrombin time.

[6] = system: coagulograms of rats; test: APTT after single intragastric administration, rats with hypercytokinemia (LPS); type: in vivo, rat; settings: dabigatran etexilate 12 mg/kg; for prolongation of APTT in relation to the LPS control group: LPS-injected rats, 5d 5.5 mg/kg intragastric; for APTT: rats with hypercytokinemia (LPS 2 mg/kg i.v.), single intragastric dose, 2 h, 5d 5.5 mg/kg
Method: as §2, §3
(§4) Hypercytokinemia conditions were modeled by an intravenous injection of S. typhimurium LPS (Sigma Aldrich, St. Louis, MO, USA) at a final dose of 2 mg/kg into the tail vein of the rats 2 h before the administration of the substances. The evaluation of anticoagulant activity was conducted according to the methods described above.

[7] = system: LPS-treated PPP; test: APTT, rabbit blood treated with LPS in vitro (hypercytokinemia); type: biochemical; settings: 100 μM; for APTT: rabbit blood treated with LPS in vitro
Method: as §1

[8] = system: LPS-treated PPP; test: Thrombin time, rabbit blood treated with LPS in vitro (hypercytokinemia); type: biochemical; settings: for Δ % of Thrombin Time Prolongation Relative To Control + LPS: with LPS; for prolongation of thrombin time relative to LPS-treated blood control: LPS-treated rabbit blood in vitro
Method: as §1
(§5) The calculation of EC50 (effective concentration that prolongs the time of clot formation by 50%) was performed using linear regression analysis.

[9] = system: coagulograms of rats; test: Thrombin time after single intragastric administration, rats with hypercytokinemia (LPS); type: in vivo, rat; settings: for increase of thrombin time in relation to the LPS control group: LPS-injected rats, 5d 5.5 mg/kg intragastric; for antithrombin effect under systemic inflammation reaction versus its absence: rats, single intragastric administration
Method: as §2, §3, §4

[10] = system: coagulograms of rats; test: Thrombin time after single intragastric administration, rats without hypercytokinemia; type: in vivo, rat; settings: dabigatran etexilate 12 mg/kg; for increase of thrombin time relative to intact control: intact rats, 2 h after intragastric administration, 5d 5.5 mg/kg; for TT: rats without hypercytokinemia, single intragastric dose, 2 h, 5d 5.5 mg/kg (equimolar)
Method: as §2, §3

[11] = system: coagulograms of rats; test: Prothrombin time after single intragastric administration, rats without hypercytokinemia; type: in vivo, rat; settings: for PT: single intragastric dose, 2 h, dabigatran etexilate 12 mg/kg, 5d 5.5 mg/kg (equimolar)
Method: as §2, with “factor).” for “factor). Compound 5d was administered to rats 2 h before the study in a 5.5 mg/kg dose, equimolar to the dose of dabigatran etexilate.”
(§6) Coagulogram parameters of platelet-poor plasma were measured with a SOLAR coagulometer according to the methods described above.

[12] = system: coagulograms of rats; test: Prothrombin time after single intragastric administration, rats with hypercytokinemia (LPS); type: in vivo, rat; settings: for PT: rats with hypercytokinemia (LPS 2 mg/kg i.v.), single intragastric dose, 2 h, dabigatran etexilate 12 mg/kg, 5d 5.5 mg/kg; for effect on prothrombin time: rats with systemic inflammatory reaction (LPS)
Method: as §2, with “factor).” for “factor). Compound 5d was administered to rats 2 h before the study in a 5.5 mg/kg dose, equimolar to the dose of dabigatran etexilate.”
as §6, §4

[13] = system: platelet-poor plasma (PPP); test: Ecarin clotting time in vitro; type: biochemical; settings: for EC50: concentration range 100 to 1 μM
Method: The ecarin clotting time was designed for the determination of antithrombin anticoagulant activity in platelet-poor plasma. Venous blood was collected into a 15 mL Falcon type plastic tube with 3.8% sodium citrate solution (0.5 mL of sodium citrate per 5 mL of blood), centrifuged on a CM-6M centrifuge (Elmi, Riga, Latvia) at room temperature from 18 to 25 °C for 15 min at 3000 rpm (1200× g). The obtained plasma was withdrawn using an automatic pipette and transferred to a separate clean, dry plastic tube. After that, the obtained plasma was recentrifuged under the same conditions and the upper third of the plasma was taken for analysis.
The ecarin stock solution (STA-ECT, Stago, Düsseldorf, Germany) was prepared according to the manufacturer’s instructions and diluted to 4 units/mL with HEPES-buffered saline (0.2 M) containing 0.025 M calcium chloride.
The tested samples were investigated in the concentration range from 100 to 1 μM for IC50 determination.
Prepared reagents and platelet-poor plasma were heated to 37 °C. The assay was performed on a Solar CGL2120 coagulometer (Belarus), adding 50 µL of the reagent ecarin to 100 µL of PPP and recording the clotting time.
as §5

[14] = rats with hypercytokinemia (LPS 2 mg/kg i.v.), single intragastric dose, 2 h, dabigatran etexilate 12 mg/kg, 5d 5.5 mg/kg

SMILES | PT [1] [s] | prolongation of APTT compared to the control [2] [times] | APTT [2] [s] | Δ% of Thrombin Time Prolongation Relative to Control ([3]; 1 μM) | Δ% of Thrombin Time Prolongation Relative to Control ([3]; 5 μM) | Δ% of Thrombin Time Prolongation Relative to Control ([3]; 10 μM) | TT ([3]; rabbit blood in vitro, 100 μM) [s] | EC50 [3] | increase of APTT relative to the control [4] [times] | APTT [4] [s] | effect on prothrombin time [5] | PT [5] [s] | prolongation of APTT in relation to the LPS control group [6] [times] | APTT [6] [s] | APTT [7] [s] | Δ % of Thrombin Time Prolongation Relative To Control + LPS ([8]; 1 μM) | Δ % of Thrombin Time Prolongation Relative To Control + LPS ([8]; 5 μM) | Δ % of Thrombin Time Prolongation Relative To Control + LPS ([8]; 10 μM) | prolongation of thrombin time relative to LPS-treated blood control ([8]; 100 μM) [times] | increase of thrombin time in relation to the LPS control group ([9]; dabigatran etexilate 12 mg/kg) [times] | also measured
CCCCCCOC(=O)N=C(N)c1ccc(NCc2nc3cc(C(=O)N(CCC(=O)OCC)c4ccccn4)ccc3n2C)cc1 [Dabigatran etexilate, reference compound] | 15.73 ± 0.20 | 3.6 | 137.5 ± 2.2 | 42.3 ± 5.6 % | 176.1 ± 15.3 % | 302.0 ± 34.4 % | 70.23 ± 3.15 | 1.4 µM | 1.6 | 75.26 ± 2.61 | without changing the prothrombin time | 14.20 ± 0.38 | 2.2 | 41.0 ± 2.0 | 135.13 ± 15.17 | 51.7% and 51.7 ± 0.5% | 208.6% | 292.0% | 14.0 | 12.8 | Δ% of Thrombin Time Prolongation Relative to Control ([3]; 0.1 μM): 1.4 ± 0.4 %; Δ% of Thrombin Time Prolongation Relative to Control ([3]; 1 μM, listed as dabigatran etexilate): 42.3%; Δ% of Thrombin Time Prolongation Relative to Control ([3]; 5 μM, listed as dabigatran etexilate): 176.1%; thrombin time ([3]; 10 μM, intact PPP): 46.8 s; Δ% of Thrombin Time Prolongation Relative to Control ([3]; 10 μM, listed as dabigatran etexilate): 302.0%; increase of thrombin time relative to the control ([3]; rabbit blood in vitro, 100 μM): 6.0 times; prolongation of APTT relative to LPS-treated blood ([7]; LPS-treated rabbit blood in vitro): 2.3 times; TT ([8]; rabbit blood treated with LPS in vitro, 100 μM): 125.45 ± 1.54 s; TT [9, 14]: 566.1 ± 11.5 s; antithrombin effect under systemic inflammation reaction versus its absence [9]: did not change; increase of thrombin time relative to intact control [10]: 10.5 times; TT [10]: 603.9 ± 14.2 s; effect on prothrombin time [11]: did not change; PT [11]: 31.2 ± 1.3 s; PT [12]: 28.1 ± 1.0 s; effect on prothrombin time [12]: neither the test compound nor dabigatran etexilate had an effect; ecarin clotting time ([13]; 1 μM): 41.6 s; ecarin clotting time ([13]; 10 μM): 54.1 s; lengthening of ecarin clotting time compared to control ([13]; 100 μM): 2.3 fold; EC50 [13]: 10.5 µM
C1=C(c2cccs2)n2ncnc2NC1c1cccs1 (stereo not drawn) [Compound 5d, 7,5-Di(2-thienyl)-4,5-dihydro-[1,2,4]triazolo[1,5-a]pyrimidine] | 14.08 ± 0.4 | 1.5 | 59.2 ± 8.3 | 46.5% and 46.5 ± 6.7 % | 194.1% and 194.1 ± 10.0 % | 467.1% and 467.1 ± 14.4 % | 154.43 ± 11.14 | 1.25 µM and 1.3 µM | 1.3 | 61.78 ± 4.58 | did not affect the prothrombin time | 14.08 ± 0.4 | 1.6 | 28.7 ± 1.0 | 61.78 ± 4.58 | 56.3% and 56.3 ± 1.1 % | 234.1% and 234.1 ± 4.2 ^#$ % | 354.1% and 354.1 ± 6.5 ^#$ % | 17.0 | 14.5 | prolongation of thrombin time exceeding dabigatran etexilate ([3]; rabbit blood in vitro, 100 μM, versus reference drug): 2.2 times; TT, s [9, 14]: 640.3 ± 7.4 ^#$ s; antithrombin effect under systemic inflammation reaction versus its absence [9]: twice as pronounced; increase of thrombin time relative to intact control [10]: 5.6 times; TT [10]: 325.3 ± 5.1 s; PT [11]: 24.5 ± 1.1 s; PT [12]: 26.4 ± 1.4 s; effect on prothrombin time [12]: neither the test compound nor dabigatran etexilate had an effect; ecarin clotting time ([13]; 1 μM): 40.2 s; ecarin clotting time ([13]; 10 μM): 50.5 s; ecarin clotting time ([13]; 100 μM): 81.3 s; EC50 [13]: 17.9 µM
Nc1ccc(-c2cc(-c3ccc(N)cc3)n3ccnc3n2)cc1 [Compound 7a, 4,4′-(Imidazo[1,2-a]pyrimidine-5,7-diyl)dianiline] |  |  |  |  |  |  | 66.58 ± 4.64 |  |  | 56.23 ± 5.05 |  | 11.62 ± 1.00 |  |  |  |  |  |  |  |  | anticoagulant activity / thrombin time prolongation compared with dabigatran etexilate ([3]; rabbit blood in vitro, 100 μM): comparable to dabigatran etexilate in terms of activity; melting point: 169 to 171 °C
Nc1ccc(-c2cc(-c3cccs3)n3ncnc3n2)cc1 [Compound 7b, 4-(7-(Thiophen-2-yl)-[1,2,4]triazolo[1,5-a]pyrimidin-5-yl)aniline] |  |  |  |  |  |  | 32.3 ± 0.9 |  |  | 35.0 ± 0.2 |  | 13.6 ± 0.5 |  |  |  |  |  |  |  |  | melting point: 211 to 214 °C
